Consider 8 molecules from publication PMC5755953, “Identification of Allosteric Modulators of Metabotropic Glutamate 7 Receptor Using Proteochemometric Modeling” (Journal of Chemical Information and Modeling, 2017).

Test [1] relates to mGlu7. Also on record: method as in PMID 16339898. The conditions noted are these: known reference compound, agonist/PAM; cited from earlier work.
For test [2], the system named is mGlu7. Also on record: method as in PMID 17609420. The conditions noted are these: known reference compound, allosteric antagonist/NAM; cited from earlier work.
The next test addresses T1, mGlu7 receptor (Homo sapiens, UniProt Q14831).
T1 construct: expressed in transfected cells; host or cells: HEK 293 cells
As to the kind of experiment: mGlu7 PAM assay (Ca2+ response, concentration response). The note with it: confirmed hits of virtual screening; for EC50: concentration response, read-out: mGlu7 PAM pEC50 (converted). The test is classed as cell-based.

Another test has as its system mGlu1 to mGlu8 receptor. The test is described as follows: mGlu receptor panel selectivity assays (activation or inactivation). The format is cell-based. The conditions noted are these: up to concentration cutoffs of 10 μM. The procedure: Active hits from the VS were sourced from the Janssen corporate compound collection, no new synthesis was performed at this time, and batch purity information is provided in the Supporting Information (Table S5). The selectivity of the hits 1 to 4 was assessed by in vitro screening in the same panel of mGlu1 to mGlu8 receptor activation or inactivation assays.
(§1) Method for selectivity assays mGlu receptor panel selectivity assays: Ca2+ assays with human mGlu1, 3, 5, 7, or 8 receptor expressing HEK 293 cells were performed as reported in Lavreysen et al. (2013), except for a slight change in the procedure for mGlu5: cells expressing the human mGlu5 receptor were seeded at 40,000 cells/well in MW384. TwentyEfour hours after seeding, cells were incubated for 90 min in Ca2+ assay kit (Molecular Devices) dissolved in saline PBS supplemented with 5 mmol/L probenecid, pH 7.4 (f.c. 2.5 mmol/L probenecid as loading buffer was added on the cell layer without removal of medium) before measurements. Measurement of [35S]GTPγS binding to membranes from CHO cells expressing the rat mGlu6 receptor and membranes from L929sA cells expressing the human mGlu4 receptor were conducted also as described in Lavreysen et al.
(§2) Lavreysen H, et al. Pharmacological Characterization of JNJE40068782, a New Potent, Selective, and Systemically Active Positive Allosteric Modulator of the mGlu2 Receptor and Its

Another test has as its target T2, mGlu4 (Homo sapiens, UniProt Q14833).
T2 construct: expressed in transfected cells; host or cells: L929sA cells (membranes)
As to the kind of experiment: mGlu4 agonism assay ([35S]GTPγS binding to membranes). The test is classed as biochemical. The conditions noted are these: selectivity panel; read-out: pEC50 in mGlu4 agonism assay (converted). On the procedure: as §1, §2
A general note: GTPγS is a poorly hydrolysed GTP analogue; its binding reports G protein activation.

Molecules are shown by their SMILES.

T1 sequence (Q14831 35-915): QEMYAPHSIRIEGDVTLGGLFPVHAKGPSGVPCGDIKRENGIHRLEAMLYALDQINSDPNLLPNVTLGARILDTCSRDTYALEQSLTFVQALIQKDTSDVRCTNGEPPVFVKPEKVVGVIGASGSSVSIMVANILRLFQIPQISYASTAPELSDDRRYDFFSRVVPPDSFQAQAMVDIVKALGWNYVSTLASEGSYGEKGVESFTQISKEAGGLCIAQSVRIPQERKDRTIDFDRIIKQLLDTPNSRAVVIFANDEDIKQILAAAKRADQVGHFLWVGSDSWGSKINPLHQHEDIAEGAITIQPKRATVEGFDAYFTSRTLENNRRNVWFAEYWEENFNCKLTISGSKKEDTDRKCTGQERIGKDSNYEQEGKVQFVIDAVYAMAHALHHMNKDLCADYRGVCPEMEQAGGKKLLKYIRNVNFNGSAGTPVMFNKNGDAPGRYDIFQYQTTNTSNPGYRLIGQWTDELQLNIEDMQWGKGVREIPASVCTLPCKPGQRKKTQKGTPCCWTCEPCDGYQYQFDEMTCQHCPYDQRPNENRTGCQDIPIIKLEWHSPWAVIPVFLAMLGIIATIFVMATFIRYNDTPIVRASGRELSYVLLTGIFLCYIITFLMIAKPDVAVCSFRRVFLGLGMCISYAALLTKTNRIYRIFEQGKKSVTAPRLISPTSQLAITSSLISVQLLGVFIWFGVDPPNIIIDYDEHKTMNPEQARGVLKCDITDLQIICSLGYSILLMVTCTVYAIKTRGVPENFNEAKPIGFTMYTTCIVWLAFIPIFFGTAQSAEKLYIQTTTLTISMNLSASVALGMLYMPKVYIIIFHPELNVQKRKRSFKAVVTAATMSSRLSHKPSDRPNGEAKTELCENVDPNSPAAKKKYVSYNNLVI
T2 sequence (Q14833 33-912): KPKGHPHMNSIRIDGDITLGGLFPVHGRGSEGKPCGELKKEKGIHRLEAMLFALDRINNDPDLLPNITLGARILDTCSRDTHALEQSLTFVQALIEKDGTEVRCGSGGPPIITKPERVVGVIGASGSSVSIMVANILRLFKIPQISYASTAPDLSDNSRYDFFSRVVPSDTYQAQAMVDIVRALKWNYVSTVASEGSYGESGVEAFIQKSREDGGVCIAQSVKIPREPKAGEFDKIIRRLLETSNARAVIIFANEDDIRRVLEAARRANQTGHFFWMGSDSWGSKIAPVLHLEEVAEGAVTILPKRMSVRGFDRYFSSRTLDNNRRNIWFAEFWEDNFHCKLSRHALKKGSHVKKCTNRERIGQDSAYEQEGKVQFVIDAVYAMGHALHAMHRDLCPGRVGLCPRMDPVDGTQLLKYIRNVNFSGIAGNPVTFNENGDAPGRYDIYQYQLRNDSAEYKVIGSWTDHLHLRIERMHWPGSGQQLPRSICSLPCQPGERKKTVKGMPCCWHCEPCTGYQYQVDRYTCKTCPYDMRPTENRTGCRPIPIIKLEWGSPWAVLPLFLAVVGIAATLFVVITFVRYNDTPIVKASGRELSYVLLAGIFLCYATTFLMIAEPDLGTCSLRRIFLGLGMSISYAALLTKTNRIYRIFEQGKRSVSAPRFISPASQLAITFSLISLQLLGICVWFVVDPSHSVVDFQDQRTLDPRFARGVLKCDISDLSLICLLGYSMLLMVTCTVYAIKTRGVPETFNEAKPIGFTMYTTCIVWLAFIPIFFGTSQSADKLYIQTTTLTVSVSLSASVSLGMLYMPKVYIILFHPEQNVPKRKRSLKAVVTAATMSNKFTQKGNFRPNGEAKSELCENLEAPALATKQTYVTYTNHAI

`c1ccc(C(NCCNC(c2ccccc2)c2ccccc2)c2ccccc2)cc1` [AMN-082]: the “PAM activity reported in cAMP and Ca2+ assays” value in the test with mGlu7 [1] is on record as “Active PAM reported in cAMP but not Ca2+ assays”.
As for `COc1ccc(-c2cc3onc(-c4ccncc4)c3c(=O)n2C)cc1` [MMPIP], the “mGlu7-ant pIC50” value in the test on mGlu7 [2] is given as 7.
The term Emax denotes the maximal effect, on the per cent scale that the assay sets. In the case of `COc1cc(F)cc(COc2ccc(C(=O)N[C@H](C)C(C)(C)C)cn2)c1` [compound 1], on mGlu7 receptor, the Emax came out at 86% and the EC50 was 12.6 µM. For the same molecule, the “activity in panel of mGlu1 to mGlu8 receptor activation or inactivation assays” value (shortened to “activity in panel of mGlu1”) with mGlu1 to mGlu8 receptor was “No activity”.
For `COc1c(F)cccc1COc1ccc(C(=O)N[C@H](C)C(C)(C)C)cn1` [compound 2], on mGlu7 receptor, the maximal response (Emax) amounted to 103% and the EC50 was 12.6 µM. In addition, the “activity in panel of mGlu1” value in the test on mGlu1 to mGlu8 receptor was “No activity”.
As for `CNC(=O)N1CCCC(CN2CCC(OC(c3ccccc3)c3ccccc3)CC2)C1` (stereo not shown) [compound 3], at mGlu4, the EC50 is 0.631 µM.
For the molecule `CC(C)(C)OC(=O)N1CCc2ccc(-n3cc(-c4ccncc4)cn3)cc2CC1` [compound 4], on mGlu7 receptor, the Emax was determined as 57% and the EC50 was 31.6 µM. Further, in the test with mGlu1 to mGlu8 receptor, the “activity in panel of mGlu1” value is “No activity”.
For `COc1ccc(CN2CCc3c(nc(N4CCC(C)CC4)[nH]c3=O)C2)cc1` [compound 5], at mGlu7 receptor, the Emax turned out to be 99% and the EC50 is 15.8 µM.
Take `CC1CCN(c2nc(-c3ccncc3)nc3cnccc23)CC1` [compound 6]: on mGlu7 receptor, the Emax was 65% and the EC50 is above 30.2 µM.
